Assay results as given in patent US9593108B2, “Compounds and methods for antiviral treatment” (PTC Therapeutics, Inc., priority 2009, dated 2017).

Legend:
[1] = system: HCV replicon RNA (GenBank Accession No. AJ242654); assay: HCV Replicon Assay (replicon RNA reduction and/or Fluc reporter signal); format: cell-based, Hepatitis C virus; settings: Hepatitis C virus, 72 h, replicon-containing cells cultured with test compound for up to 3 days
Method in brief: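 Bicistronic replicon-containing cells cultured with compound for up to 3 days, with interferon as positive control. Inhibition quantified by replicon RNA reduction and/or Fluc reporter signal; IC50 values generally derived from replicon RNA reduction.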

SMILES	melting point [°C]	IC50 [1] [µM]
C[C@H](NS(=O)(=O)c1ccc(-c2c(C#N)c3cc(OC(F)F)cnc3n2C2CCC2)cc1)C(F)(F)F [Cpd 198, 4-[3-cyano-1-cyclobutyl-5-(difluoromethoxy)-1H-pyrrolo[2,3-b]pyridin-2-yl]-N-[(2S)-1,1,1-trifluoropropan-2-yl]benzenesulfonamide]	155 to 156	0.5 to 2
C[C@@H](NS(=O)(=O)c1ccc(-c2c(C#N)c3cc(OC(F)F)cnc3n2C2CCC2)cc1)C(F)(F)F [Cpd 199, 4-[3-cyano-1-cyclobutyl-5-(difluoromethoxy)-1H-pyrrolo[2,3-b]pyridin-2-yl]-N-[(2R)-1,1,1-trifluoropropan-2-yl]benzenesulfonamide]	199 to 200	< 0.5
CC(C)(NS(=O)(=O)c1ccc(-c2c(C#N)c3cc(OC(F)F)cnc3n2C2CCC2)nc1)C(F)(F)F [Cpd 201, 6-[3-cyano-1-cyclobutyl-5-(difluoromethoxy)-1H-pyrrolo[2,3-b]pyridin-2-yl]-N-(1,1,1-trifluoro-2-methylpropan-2-yl)pyridine-3-sulfonamide]	168 to 169	< 0.5
CCOc1cnc2c(c1)c(C#N)c(-c1ccc(S(=O)(=O)N[C@@H](C)C(F)(F)F)cn1)n2C1CCC1 [Cpd 202, 6-(3-cyano-1-cyclobutyl-5-ethoxy-1H-pyrrolo[2,3-b]pyridin-2-yl)-N-[(2S)-1,1,1-trifluoropropan-2-yl]pyridine-3-sulfonamide]	181 to 182	< 0.5
CCOc1cnc2c(c1)c(C#N)c(-c1ccc(S(=O)(=O)N[C@H](C)C(F)(F)F)cn1)n2C1CCC1 [Cpd 203, 6-(3-cyano-1-cyclobutyl-5-ethoxy-1H-pyrrolo[2,3-b]pyridin-2-yl)-N-[(2R)-1,1,1-trifluoropropan-2-yl]pyridine-3-sulfonamide]	180 to 181	< 0.5
CCCOc1cnc2c(c1)c(C#N)c(-c1ccc(S(=O)(=O)N[C@@H](C)C(F)(F)F)cn1)n2C1CCC1 [Cpd 204, 6-(3-cyano-1-cyclobutyl-5-propoxy-1H-pyrrolo[2,3-b]pyridin-2-yl)-N-[(2S)-1,1,1-trifluoropropan-2-yl]pyridine-3-sulfonamide]	170 to 171	< 0.5
CCCOc1cnc2c(c1)c(C#N)c(-c1ccc(S(=O)(=O)N[C@H](C)C(F)(F)F)cn1)n2C1CCC1 [Cpd 205, 6-(3-cyano-1-cyclobutyl-5-propoxy-1H-pyrrolo[2,3-b]pyridin-2-yl)-N-[(2R)-1,1,1-trifluoropropan-2-yl]pyridine-3-sulfonamide]	169 to 170	< 0.5
Cc1cnc2c(C#N)c(-c3ccc(S(=O)(=O)N[C@@H](C)C(F)(F)F)cn3)n(C3CCC3)c2c1 [Cpd 206, 6-(3-cyano-1-cyclobutyl-6-methyl-1H-pyrrolo[3,2-b]pyridin-2-yl)-N-[(2S)-1,1,1-trifluoropropan-2-yl]pyridine-3-sulfonamide]	217 to 218	0.5 to 2
Cc1cnc2c(C#N)c(-c3ccc(S(=O)(=O)N[C@H](C)C(F)(F)F)cn3)n(C3CCC3)c2c1 [Cpd 207, 6-(3-cyano-1-cyclobutyl-6-methyl-1H-pyrrolo[3,2-b]pyridin-2-yl)-N-[(2R)-1,1,1-trifluoropropan-2-yl]pyridine-3-sulfonamide]	207 to 209	0.5 to 2
Cc1cnc2c(C#N)c(-c3ccc(S(=O)(=O)NC4(C(F)(F)F)CC4)cn3)n(C3CCC3)c2c1 [Cpd 208, 6-(3-cyano-1-cyclobutyl-6-methyl-1H-pyrrolo[3,2-b]pyridin-2-yl)-N-[1-(trifluoromethyl)cyclopropyl]pyridine-3-sulfonamide]	248 to 249	< 0.5
Cc1cnc2c(C#N)c(-c3ccc(S(=O)(=O)NC(C)(C)C(F)(F)F)cn3)n(C3CCC3)c2c1 [Cpd 209, 6-(3-cyano-1-cyclobutyl-6-methyl-1H-pyrrolo[3,2-b]pyridin-2-yl)-N-(1,1,1-trifluoro-2-methylpropan-2-yl)pyridine-3-sulfonamide]	238 to 240	< 0.5
Cc1cnc2c(C#N)c(-c3ccc(S(=O)(=O)NC4(C)CC4)cn3)n(C3CCC3)c2c1 [Cpd 210, 6-(3-cyano-1-cyclobutyl-6-methyl-1H-pyrrolo[3,2-b]pyridin-2-yl)-N-(1-methylcyclopropyl)pyridine-3-sulfonamide]	187 to 188	< 0.5
Cc1cnc2c(C#N)c(-c3ccc(S(=O)(=O)NC(C)(C)C)cn3)n(C3CCC3)c2c1 [Cpd 211, N-tert-butyl-6-(3-cyano-1-cyclobutyl-6-methyl-1H-pyrrolo[3,2-b]pyridin-2-yl)pyridine-3-sulfonamide]	227 to 229	< 0.5
Cc1cnc2c(C#N)c(-c3ccc(S(=O)(=O)NC(CF)CF)cn3)n(C3CCC3)c2c1 [Cpd 212, 6-(3-cyano-1-cyclobutyl-6-methyl-1H-pyrrolo[3,2-b]pyridin-2-yl)-N-(1,3-difluoropropan-2-yl)pyridine-3-sulfonamide]	219 to 221	< 0.5
Cc1cnc2c(C#N)c(-c3ncc(S(=O)(=O)NC(CF)CF)cn3)n(C3CCC3)c2c1 [Cpd 213, 2-(3-cyano-1-cyclobutyl-6-methyl-1H-pyrrolo[3,2-b]pyridin-2-yl)-N-(1,3-difluoropropan-2-yl)pyrimidine-5-sulfonamide]	269 to 271	< 0.5
Cc1cnc2c(C#N)c(-c3ncc(S(=O)(=O)NC(C)C)cn3)n(C3CCC3)c2c1 [Cpd 214, 2-(3-cyano-1-cyclobutyl-6-methyl-1H-pyrrolo[3,2-b]pyridin-2-yl)-N-(propan-2-yl)pyrimidine-5-sulfonamide]	278 to 280	< 0.5
Cc1cnc2c(C#N)c(-c3ncc(S(=O)(=O)N[C@@H](C)C(F)(F)F)cn3)n(C3CCC3)c2c1 [Cpd 215, 2-(3-cyano-1-cyclobutyl-6-methyl-1H-pyrrolo[3,2-b]pyridin-2-yl)-N-[(2S)-1,1,1-trifluoropropan-2-yl]pyrimidine-5-sulfonamide]	268 to 269	0.5 to 2
Cc1cnc2c(C#N)c(-c3ccc(S(=O)(=O)N[C@@H](C)C(F)(F)F)cc3)n(C3CCC3)c2c1 [Cpd 216, 4-(3-cyano-1-cyclobutyl-6-methyl-1H-pyrrolo[3,2-b]pyridin-2-yl)-N-[(2S)-1,1,1-trifluoropropan-2-yl]benzenesulfonamide]	245 to 246	0.5 to 2
Cc1cnc2c(C#N)c(-c3ccc(S(=O)(=O)N[C@H](C)C(F)(F)F)cc3)n(C3CCC3)c2c1 [Cpd 217, 4-(3-cyano-1-cyclobutyl-6-methyl-1H-pyrrolo[3,2-b]pyridin-2-yl)-N-[(2R)-1,1,1-trifluoropropan-2-yl]benzenesulfonamide]	252 to 253	2 to 5
CC(C)Oc1cnc2c(c1)c(C#N)c(-c1ccc(S(=O)(=O)N[C@@H](C)C(F)(F)F)cn1)n2C1CCC1 [Cpd 218, 6-[3-cyano-1-cyclobutyl-5-(propan-2-yloxy)-1H-pyrrolo[2,3-b]pyridin-2-yl]-N-[(2S)-1,1,1-trifluoropropan-2-yl]pyridine-3-sulfonamide]	168 to 169	< 0.5
CCc1cc2c(C#N)c(-c3ccc(S(=O)(=O)N[C@@H](C)C(F)(F)F)cc3)n(C3CCC3)c2cn1 [Cpd 219, 4-(3-cyano-1-cyclobutyl-5-ethyl-1H-pyrrolo[2,3-c]pyridin-2-yl)-N-[(2S)-1,1,1-trifluoropropan-2-yl]benzenesulfonamide]	200 to 203	< 0.5
CCc1cc2c(C#N)c(-c3ccc(NS(=O)(=O)C(C)C)cc3)n(C3CCC3)c2cn1 [Cpd 220, N-[4-(3-cyano-1-cyclobutyl-5-ethyl-1H-pyrrolo[2,3-c]pyridin-2-yl)phenyl]propane-2-sulfonamide]	160 to 165	< 0.5
C[C@H](NS(=O)(=O)c1ccc(-c2c(C#N)c3cccnc3n2C2CCCC2)nc1)C(F)(F)F [Cpd 221, 6-(3-cyano-1-cyclopentyl-1H-pyrrolo[2,3-b]pyridin-2-yl)-N-[(2S)-1,1,1-trifluoropropan-2-yl]pyridine-3-sulfonamide]	157 to 159	< 0.5
C[C@H](NS(=O)(=O)c1ccc(-c2c(C#N)c3cc(C4CC4)ncc3n2C2CCC2)nc1)C(F)(F)F [Cpd 223, 6-(3-cyano-1-cyclobutyl-5-cyclopropyl-1H-pyrrolo[2,3-c]pyridin-2-yl)-N-[(2S)-1,1,1-trifluoropropan-2-yl]pyridine-3-sulfonamide]	200 to 205	0.5 to 2
C[C@H](NS(=O)(=O)c1ccc(-c2c(C#N)c3cc(C4CC4)ncc3n2C2CCC2)cc1)C(F)(F)F [Cpd 224, 4-(3-cyano-1-cyclobutyl-5-cyclopropyl-1H-pyrrolo[2,3-c]pyridin-2-yl)-N-[(2S)-1,1,1-trifluoropropan-2-yl]benzenesulfonamide]	190 to 195	< 0.5
COc1cnc2c(c1)c(C(N)=O)c(-c1ccc(S(=O)(=O)N[C@@H](C)C(F)(F)F)cn1)n2C1CCC1 [Cpd 226, 1-cyclobutyl-5-methoxy-2-(5-{[(2S)-1,1,1-trifluoropropan-2-yl]sulfamoyl}pyridin-2-yl)-1H-pyrrolo[2,3-b]pyridine-3-carboxamide]	233 to 235	< 0.5
C[C@H](NS(=O)(=O)c1ccc(-c2c(C#N)c3cc(C(F)(F)F)cnc3n2C2CCC2)nc1)C(F)(F)F [Cpd 227, 6-[3-cyano-1-cyclobutyl-5-(trifluoromethyl)-1H-pyrrolo[2,3-b]pyridin-2-yl]-N-[(2S)-1,1,1-trifluoropropan-2-yl]pyridine-3-sulfonamide]	183 to 185	< 0.5
